For 2 compounds, LD50 and Kd results are on record in ChEMBL document CHEMBL2021763, “Solution NMR analysis of the binding mechanism of DIVS6 model peptides of voltage-gated sodium channels and the lipid soluble alkaloid veratridine” (Bioorg Med Chem, 2012).

Series [1] is described as follows: Toxicity in ip dosed mouse. The class given is organism-based. The following applies: in vivo.
Series [2] in a line: Binding affinity to transmembrane model peptide-1 of domain 4 segment 6 of rat skeletal muscle Nav1.4 by Marquardt and Levenberg algorithm analysis.
Series [3] in a line: Binding affinity to transmembrane model peptide-2 of domain 4 segment 6 of rat skeletal muscle Nav1.4 by Marquardt and Levenberg algorithm analysis.

As to `C[C@H]1CC[C@@H]2N(C1)C[C@@H]1[C@](O)([C@@H](O)C[C@@]3(O)[C@@H]4CC[C@@H]5[C@]6(O)O[C@@]4(C[C@@]13O)[C@@]5(C)CC[C@@H]6O)[C@]2(C)O` [VERACEVINE], in series [1], the LD50 is more than 100 mg/kg. In series [2], this compound yielded a Kd of 0.89 mM.

`COc1ccc(C(=O)O[C@H]2CC[C@@]3(C)[C@@H]4CC[C@H]5[C@]6(O)C[C@H](O)[C@@]7(O)[C@@H](CN8C[C@@H](C)CC[C@H]8[C@@]7(C)O)[C@]6(O)C[C@@]53O[C@]24O)cc1OC` [VERATRIDINE] displayed an LD50 in series [1] of 9 mg/kg. Also, the Kd in series [2] was 1.4 mM; in series [3] it was 490 µM.

The LD50 is the dose expected to kill half of the subjects tested. A low value points to greater toxicity. Broadly, the Kd is the equilibrium constant for the complex coming apart.
